Measured values published in US7858620B2, “Cyanoisoquinoline” (H. Lundbeck A/S, priority 2007, dated 2010).

biological target: T1, PDE10A enzyme (Homo sapiens, UniProt Q9Y233); assay: PDE10A inhibition assay, SPA; format: biochemical; details: column head 2,1334003; unit inferred, nM
T1 construct: made in house; host or cells: E. coli BL21(DE3)
Method: Active PDE10A enzyme is prepared in a number of ways for use in PDE assays (Loughney, K. et al. Gene 1999, 234, 109-117; Fujishige, K. et al. Eur J Biochem. 1999, 266, 1118-1127 and Soderling, S. et al. Proc. Natl. Acad. Sci. 1999, 96, 7071-7076). PDE10A can be expressed as full-length proteins or as truncated proteins, as long as they express the catalytic domain. PDE10A can be prepared in different cell types, for example insect cells or E. coli. An example of a method to obtain catalytically active PDE10A is as follows: The catalytic domain of human PDE10A (amino acids 440-779 from the sequence with accession number NP 006652) is amplified from total human brain total RNA by standard RT-PCR and is cloned into the BamH1 and Xho1 sites of the pET28a vector (Novagen). Expression in coli is performed according to standard protocols. Briefly, the expression plasmids are transformed into the BL21(DE3) E. coli strain, and 50 mL cultures inoculated with the cells allowed to grow to an OD600 of 0.4-0.6 before protein expression is induced with 0.5 mM IPTG. Following induction, the cells are incubated overnight at room temperature, after which the cells are collected by centrifugation. Cells expressing PDE10A are resuspended in 12 mL (50 mM TRIS-HCl-pH8.0, 1 mM MgCl2 and protease inhibitors). The cells are lysed by sonication, and after all cells are lysed, TritonX100 is added according to Novagen protocols.
PDE10A and Pde3A assays can for example be performed as follows: PDE10A and Pde3A assays are performed in 60 uL samples containing a fixed amount of the relevant PDE enzyme (sufficient to convert 20-25% of the cyclic nucleotide substrate), a buffer (50 mM HEPES7.6; 10 mM MgCl2; 0.02% Tween20), 0.1 mg/ml BSA, 225 pCi of ^3H-labelled cyclic nucleotide substrate, tritium labeled cAMP to a final concentration of 5 nM and varying amounts of inhibitors. Reactions are initiated by addition of the cyclic nucleotide substrate, and reactions are allowed to proceed for one hr at room temperature before being terminated through mixing with 15 uL 8 mg/mL yttrium silicate SPA beads (Amersham). The beads are allowed to settle for one hr in the dark before the plates are counted in a Wallac 1450 Microbeta counter. The measured signal can be converted to activity relative to an uninhibited control (100%) and IC50 values can be calculated using the Xlfit extension to EXCEL.

T1 sequence (Q9Y233 716-1055): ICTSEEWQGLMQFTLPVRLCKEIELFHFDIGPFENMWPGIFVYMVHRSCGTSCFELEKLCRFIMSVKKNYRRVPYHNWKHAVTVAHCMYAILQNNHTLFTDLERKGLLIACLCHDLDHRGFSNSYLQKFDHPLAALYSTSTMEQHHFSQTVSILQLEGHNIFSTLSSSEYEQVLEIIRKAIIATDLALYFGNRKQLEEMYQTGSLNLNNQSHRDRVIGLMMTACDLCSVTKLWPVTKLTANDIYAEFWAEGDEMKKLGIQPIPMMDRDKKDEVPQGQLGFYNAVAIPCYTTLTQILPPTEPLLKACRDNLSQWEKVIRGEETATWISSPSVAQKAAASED

Compound | IC50
COc1cc2c(N3CCNC(c4ccc(C)cc4)C3)nc(C)c(C#N)c2cc1OC (stereo not drawn) [Compound 31, 6,7-Dimethoxy-3-methyl-1-(3-p-tolyl-piperazin-1-yl)-isoquinoline-4-carbonitrile] | 1000 nM
COc1ccc(C2CN(c3nc(C)c(C#N)c4cc(OC)c(OC)cc34)CCN2)cc1 (stereo not drawn) [Compound 32, 6,7-Dimethoxy-1-[3-(4-methoxy-phenyl)-piperazin-1-yl]-3-methyl-isoquinoline-4-carbonitrile] | 290 nM
COc1cc2c(N3CCNC(c4ccc5ccccc5c4)C3)nc(C)c(C#N)c2cc1OC (stereo not drawn) [Compound 33, 6,7-Dimethoxy-3-methyl-1-(3-naphthalen-2-yl-piperazin-1-yl)-isoquinoline-4-carbonitrile] | 2100 nM
COc1cc2c(N3CCNC(c4cccc5ccccc45)C3)nc(C)c(C#N)c2cc1OC (stereo not drawn) [Compound 34, 6,7-Dimethoxy-3-methyl-1-(3-naphthalen-1-yl-piperazin-1-yl)-isoquinoline-4-carbonitrile] | 880 nM
COc1cc(OC)cc(C2CN(c3nc(C)c(C#N)c4cc(OC)c(OC)cc34)CCN2)c1 (stereo not drawn) [Compound 35, 1-[3-(3,5-Dimethoxy-phenyl)-piperazin-1-yl]-6,7-dimethoxy-3-methyl-isoquinoline-4-carbonitrile] | 710 nM
COc1ccc(OC)c(C2CN(c3nc(C)c(C#N)c4cc(OC)c(OC)cc34)CCN2)c1 (stereo not drawn) [Compound 36, 1-[3-(2,5-Dimethoxy-phenyl)-piperazin-1-yl]-6,7-dimethoxy-3-methyl-isoquinoline-4-carbonitrile] | 960 nM
COc1cc2c(N3CCNC(c4ccc(Br)cc4)C3)nc(C)c(C#N)c2cc1OC (stereo not drawn) [Compound 37, 1-[3-(4-Bromo-phenyl)-piperazin-1-yl]-6,7-dimethoxy-3-methyl-isoquinoline-4-carbonitrile] | 2600 nM
COc1ccc2cc(C3CN(c4nc(C)c(C#N)c5cc(OC)c(OC)cc45)CCN3)ccc2c1 (stereo not drawn) [Compound 38, 6,7-Dimethoxy-1-[3-(6-methoxy-naphthalen-2-yl)-piperazin-1-yl]-3-methyl-isoquinoline-4-carbonitrile] | 980 nM
COc1ccc(C2CN(c3nc(C)c(C#N)c4cc(OC)c(OC)cc34)CCO2)cc1 (stereo not drawn) [Compound 39, 6,7-Dimethoxy-1-[2-(4-methoxy-phenyl)-morpholin-4-yl]-3-methyl-isoquinoline-4-carbonitrile] | 930 nM
COc1cc2c(N3CCN[C@H](c4ccccc4)C3)nc(C)c(C#N)c2cc1OC [Compound 40] | 520 nM
COc1cc2c(N3CCNC(c4ccc(F)cc4)C3)nc(C)c(C#N)c2cc1OC (stereo not drawn) [Compound 41, 1-[3-(4-Fluoro-phenyl)-piperazin-1-yl]-6,7-dimethoxy-3-methyl-isoquinoline-4-carbonitrile] | 1200 nM
COc1cc2c(N3CCNC(c4ccccc4OC)C3)nc(C)c(C#N)c2cc1OC (stereo not drawn) [Compound 42, 6,7-Dimethoxy-1-[3-(2-methoxy-phenyl)-piperazin-1-yl]-3-methyl-isoquinoline-4-carbonitrile] | 1400 nM
COc1cc2c(N3CCNC(c4ccc5c(c4)OCO5)C3)nc(C)c(C#N)c2cc1OC (stereo not drawn) [Compound 43, 1-(3-Benzo[1,3]dioxol-5-yl-piperazin-1-yl)-6,7-dimethoxy-3-methyl-isoquinoline-4-carbonitrile] | 510 nM
COc1cc2c(C#N)cnc(N3CCN(C)C(c4ccc(C)cc4)C3)c2cc1OC (stereo not drawn) [Compound 45, 6,7-Dimethoxy-1-(4-methyl-3-p-tolyl-piperazin-1-yl)-isoquinoline-4-carbonitrile] | 350 nM
COc1cc2c(N3CCNC(c4ccc(N(C)C)cc4)C3)nc(C)c(C#N)c2cc1OC (stereo not drawn) [Compound 47, 1-[3-(4-Dimethylamino-phenyl)-piperazin-1-yl]-6,7-dimethoxy-3-methyl-isoquinoline-4-carbonitrile] | 1200 nM
COc1cc2c(N3CCNC(c4cc(OC)c(OC)c(OC)c4)C3)nc(C)c(C#N)c2cc1OC (stereo not drawn) [Compound 48, 6,7-Dimethoxy-3-methyl-1-[3-(3,4,5-trimethoxy-phenyl)-piperazin-1-yl]-isoquinoline-4-carbonitrile] | 1500 nM
COc1cc2c(N3CCN[C@@H](c4ccccc4)C3)nc(C)c(C#N)c2cc1OC [Compound 49, 6,7-Dimethoxy-3-methyl-1-((S)-3-phenyl-piperazin-1-yl)-isoquinoline-4-carbonitrile] | 460 nM
COc1cc2c(N3CCNC(c4cccc([N+](=O)[O-])c4)C3)nc(C)c(C#N)c2cc1OC (stereo not drawn) [Compound 50, 6,7-Dimethoxy-3-methyl-1-[3-(3-nitro-phenyl)-piperazin-1-yl]-isoquinoline-4-carbonitrile] | 1100 nM
COc1cc2c(N3CCNC(c4ccc(N5CCOCC5)cc4)C3)nc(C)c(C#N)c2cc1OC (stereo not drawn) [Compound 51, 6,7-Dimethoxy-3-methyl-1-[3-(4-morpholin-4-yl-phenyl)-piperazin-1-yl]-isoquinoline-4-carbonitrile] | 1500 nM
COc1ccc(C2CN(c3ncc(C#N)c4cc(OC)c(OC)cc34)CCN2)c(C)c1 (stereo not drawn) [Compound 53, 6,7-Dimethoxy-1-[3-(4-methoxy-2-methyl-phenyl)-piperazin-1-yl]-isoquinoline-4-carbonitrile] | 500 nM
COc1ccc(C2CN(c3ncc(C#N)c4cc(OC)c(OC)cc34)CCN2)cc1F (stereo not drawn) [Compound 54, 1-[3-(3-Fluoro-4-methoxy-phenyl)-piperazin-1-yl]-6,7-dimethoxy-isoquinoline-4-carbonitrile] | 36 nM
COc1ccc(C2CN(c3ncc(C#N)c4cc(OC)c(OC)cc34)CCN2)cc1Cl (stereo not drawn) [Compound 56, 1-[3-(3-Chloro-4-methoxy-phenyl)-piperazin-1-yl]-6,7-dimethoxy-isoquinoline-4-carbonitrile] | 81 nM
COc1ccc(C2CN(c3ncc(C#N)c4cc(OC)c(OC)cc34)CCN2)c(OC)c1 (stereo not drawn) [Compound 58, 1-[3-(2,4-Dimethoxy-phenyl)-piperazin-1-yl]-6,7-dimethoxy-isoquinoline-4-carbonitrile] | 850 nM

The next lines start with the values.

IC50 | Compound
700 nM | COc1cc2c(C#N)cnc(N3CCNC(c4ccc(Cl)cc4)C3)c2cc1OC (stereo not drawn) [Compound 30, 1-[3-(4-Chloro-phenyl)-piperazin-1-yl]-6,7-dimethoxy-isoquinoline-4-carbonitrile]
410 nM | COc1cc2c(C#N)cnc(N3CCN[C@@H](c4ccccc4)C3)c2cc1OC [Compound 44, 6,7-Dimethoxy-1-((S)-3-phenyl-piperazin-1-yl)-isoquinoline-4-carbonitrile]
1300 nM | CCc1ccc(C2CN(c3ncc(C#N)c4cc(OC)c(OC)cc34)CCN2)cc1 (stereo not drawn) [Compound 46, 1-[3-(4-Ethyl-phenyl)-piperazin-1-yl]-6,7-dimethoxy-isoquinoline-4-carbonitrile]
210 nM | COc1cc2c(C#N)cnc(N3CCN[C@H](c4ccccc4)C3)c2cc1OC [Compound 52, 6,7-Dimethoxy-1-(®-3-phenyl-piperazin-1-yl)-isoquinoline-4-carbonitrile]
200 nM | CCOc1ccc(C2CN(c3ncc(C#N)c4cc(OC)c(OC)cc34)CCN2)cc1 (stereo not drawn) [Compound 55, 1-[3-(4-Ethoxy-phenyl)-piperazin-1-yl]-6,7-dimethoxy-isoquinoline-4-carbonitrile]
530 nM | COc1cc2c(C#N)cnc(N3CCNC(c4ccc(OC(C)C)cc4)C3)c2cc1OC (stereo not drawn) [Compound 57, 1-[3-(4-Isopropoxy-phenyl)-piperazin-1-yl]-6,7-dimethoxy-isoquinoline-4-carbonitrile]
650 nM | CCOc1ccc(C2CN(c3ncc(C#N)c4cc(OC)c(OC)cc34)CCN2)cc1C (stereo not drawn) [Compound 59, 1-[3-(4-Ethoxy-3-methyl-phenyl)-piperazin-1-yl]-6,7-dimethoxy-isoquinoline-4-carbonitrile]
2300 nM | COc1cc2c(C#N)cnc(N3CCNC(c4ccc(OC(F)(F)F)cc4)C3)c2cc1OC (stereo not drawn) [Compound 60, 6,7-Dimethoxy-1-[3-(4-trifluoromethoxy-phenyl)-piperazin-1-yl]-isoquinoline-4-carbonitrile]
1200 nM | COc1ccc([C@@H]2CN(c3ncc(C#N)c4cc(OC)c(OC)cc34)CCN2)cc1 [Compound 61, 6,7-Dimethoxy-1-[(R)-3-(4-methoxy-phenyl)-piperazin-1-yl]-isoquinoline-4-carbonitrile]
47 nM | COc1ccc([C@H]2CN(c3ncc(C#N)c4cc(OC)c(OC)cc34)CCN2)cc1 [Compound 62, 6,7-Dimethoxy-1-[(S)-3-(4-methoxy-phenyl)-piperazin-1-yl]-isoquinoline-4-carbonitrile]
